# Test results published in patent EP4603105A1, “PHARMACEUTICAL COMPOSITION CONTAINING CYCLIC COMPOUND HAVING SELECTIVE KRAS INHIBITORY EFFECT AGAINST HRAS AND NRAS” (CHUGAI SEIYAKU KABUSHIKI KAISHA, priority 2022, dated 2024).
# Like-named read-outs stand apart in the source and are kept apart here.
# Key:
# [1] = target: GDP-bound KRAS wild-type protein (Homo sapiens, UniProt P01116); test: Binding to KRAS by surface plasmon resonance (SPR), dissociation constant KD
# How it was run: (§1)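 Captured GDP-RAS (~100–300 RU) was exposed to increasing compound concentrations, 75 s per step, in running buffer with 10 µM GDP, 10 mM MgCl2 and 4% DMSO at pH 7.4.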
# HRAS wild-type protein = HRAS wild-type protein (Homo sapiens, UniProt P01112); test: Binding to HRAS by surface plasmon resonance (SPR), KD and KD ratio to KRAS
# How it was run: as §1
# [2] = target: GDP-bound NRAS wild-type protein (Homo sapiens, UniProt P01111); test: Binding to NRAS by surface plasmon resonance (SPR), KD and KD ratio to KRAS
# How it was run: as §1
# [3] = system: human lung cancer strain NCI-H441; test: NCI-H441 cell proliferation inhibitory activity (CellTiter-Glo, 4 days); type: cell-based; details: read-out: NCl-H441 IC50
# How it was run: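 Step one: dispense the test compound in serial DMSO dilutions. Step three: add the reagent and measure […].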
# [4] = ratio of KD for HRAS wild-type protein to KD for KRAS
# [5] = ratio of KD for GDP-bound NRAS wild-type protein to KD for KRAS
# [6] = Single Cycle Kinetics, 1:1 binding model
# [7] = ratio of KD with respect to HRAS wild-type protein to KD with respect to KRAS
# [8] = ratio of KD with respect to GDP-bound NRAS wild-type protein to KD with respect to KRAS
# [9] = 50% proliferation inhibitory concentration, four days
# Chain of GDP-bound NRAS wild-type protein (P01111 whole entry): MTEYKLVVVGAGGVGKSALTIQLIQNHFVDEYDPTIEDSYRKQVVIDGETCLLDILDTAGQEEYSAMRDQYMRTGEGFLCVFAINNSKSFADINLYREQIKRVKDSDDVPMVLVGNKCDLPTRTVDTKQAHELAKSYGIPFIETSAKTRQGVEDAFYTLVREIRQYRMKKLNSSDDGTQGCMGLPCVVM
# Chain of HRAS wild-type protein (P01112 whole entry): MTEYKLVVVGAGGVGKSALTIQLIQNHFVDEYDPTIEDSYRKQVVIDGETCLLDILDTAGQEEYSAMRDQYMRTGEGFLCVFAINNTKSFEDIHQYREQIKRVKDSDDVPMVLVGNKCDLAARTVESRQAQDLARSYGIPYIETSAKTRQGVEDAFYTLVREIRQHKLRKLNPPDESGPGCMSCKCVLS
# Chain of GDP-bound KRAS wild-type protein (P01116 1-188 isoform P01116-2): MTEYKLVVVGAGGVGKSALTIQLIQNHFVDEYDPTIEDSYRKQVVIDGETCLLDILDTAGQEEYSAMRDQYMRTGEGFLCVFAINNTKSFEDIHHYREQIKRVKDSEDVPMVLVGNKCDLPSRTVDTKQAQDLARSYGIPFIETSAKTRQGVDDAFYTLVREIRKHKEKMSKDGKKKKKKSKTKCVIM
SMILES,Kd ([1]; Single Cycle Kinetics) [nM],HRAS /KRAS (HRAS wild-type protein; [4]),"NRAS /KRAS [2, 5]","IC50 ([3]; NCI-H441 cells, 4 days) [nM]","Kd [1, 6] [nM]",HRAS /KRAS (HRAS wild-type protein; [7]),"NRAS /KRAS [2, 8]","IC50 [3, 9] [nM]",Kd ([1]; 1:1 binding model) [nM]
CCO[C@@H]1C[C@H]2C(=O)NC3(CC(C)(C)C3)C(=O)N(C)[C@@H](C3CCCC3)C(=O)N(C)[C@H](C(=O)N(C)C)CC(=O)N(C)[C@@H]([C@H](C)OC)C(=O)N[C@@H]([C@@H](C)CC)C(=O)N(C3CC3)CC(=O)N(C)[C@H]3C/C=C\CCN(C3=O)[C@@H](Cc3ccc(C(F)(F)F)cc3)C(=O)N(C)CC(=O)N[C@@H](CCc3ccc(C(F)(F)F)c(OC)c3)C(=O)N2C1 [PP3173],0.57,B (a compound having 3 or more and less than 10 is denoted as B),B (a compound having 3 or more and less than 10 is denoted as B),33.1,–,–,–,–,–
C=C(C)C[C@H]1C(=O)N(C)[C@H](C(=O)N(C)C)CC(=O)N(C)[C@@H](CC(C)C)C(=O)N[C@@H]([C@@H](C)CC)C(=O)N(C)CC(=O)N(C)[C@H]2C/C=C\CCN(C2=O)[C@@H](Cc2ccc(C)cc2)C(=O)N(C)CC(=O)N[C@@H](CCc2ccc(C(F)(F)F)c(OC)c2)C(=O)N2C[C@H](OCC)C[C@H]2C(=O)N(C)C2(CCC2)C(=O)N1C [PP3345],0.86,A (a compound having 10 or more and less than 20 is denoted as A),A (a compound having 10 or more and less than 20 is denoted as A),58.3,–,–,–,–,–
CCO[C@@H]1C[C@H]2C(=O)NC3(CCC3)C(=O)N(C)[C@@H](C3CCCC3)C(=O)N(C)[C@H](C(=O)N(C)C)CC(=O)N(C)[C@@H](CC)C(=O)N[C@@H]([C@@H](C)CC)C(=O)N(C)CC(=O)N(C)[C@H]3C/C=C\CCN(C3=O)[C@@H](Cc3ccc(C(F)(F)F)cc3)C(=O)N(C)CC(=O)N[C@@H](CCc3ccc(C(F)(F)F)c(C)c3)C(=O)N2C1 [PP1265],–,–,–,–,0.17,B (a compound having 3 or more and less than 10 is denoted as B),A (a compound having 10 or more and less than 20 is denoted as A),14.1,–
CCCO[C@@H]1C[C@H]2C(=O)NC3(CC(C)(C)C3)C(=O)N(C)[C@@H](C3CCCC3)C(=O)N(C)[C@H](C(=O)N(C)CC)CC(=O)N(C)[C@@H](COCC)C(=O)N[C@@H]([C@@H](C)CC)C(=O)N3CCC[C@H]3C(=O)N(C)[C@H]3C/C=C\CCN(C3=O)[C@@H](Cc3ccc(C)cc3)C(=O)N(C)CC(=O)N[C@@H](CCc3ccc(C(F)(F)F)c(OC)c3)C(=O)N2C1 [PP3467],1.3,A (a compound having 10 or more and less than 20 is denoted as A),A (a compound having 10 or more and less than 20 is denoted as A),60.2,–,–,–,–,–
C#CCN1CC(=O)N(C)[C@H]2C/C=C\CCN(C2=O)[C@@H](Cc2ccc(C(F)F)cc2)C(=O)N(C)CC(=O)N[C@@H](CCc2cc(F)c(C(F)(F)F)c(F)c2)C(=O)N2C[C@H](OC(C)C)C[C@H]2C(=O)N(C)C2(CCC2)C(=O)N(C)[C@@H](C(CC)CC)C(=O)N(C)[C@H](C(=O)N(C)C)CC(=O)N(C)[C@@H](COCCC)C(=O)N[C@@H]([C@@H](C)CC)C1=O [PP3490],0.3,A (a compound having 10 or more and less than 20 is denoted as A),A (a compound having 10 or more and less than 20 is denoted as A),23.7,–,–,–,–,–
CCCOC[C@H]1C(=O)N[C@@H]([C@@H](C)CC)C(=O)N2CCC[C@H]2C(=O)N(C)[C@H]2C/C=C\CCN(C2=O)[C@@H](Cc2ccc(C)cc2)C(=O)N(C)CC(=O)N[C@@H](CCc2ccc(C(F)(F)F)c(OC)c2)C(=O)N2C[C@@H](C)C[C@H]2C(=O)N(C)C2(CCC2)C(=O)N(C)[C@@H](C2CCCC2)C(=O)N(C)[C@H](C(=O)N(C)C)CC(=O)N1C [PP2369],–,B (a compound having 3 or more and less than 10 is denoted as B),A (a compound having 10 or more and less than 20 is denoted as A),4.5,–,–,–,–,0.062
CCO[C@@H]1C[C@H]2C(=O)NC3(CCC3)C(=O)N(C)[C@@H](C(CC)CC)C(=O)N(C)[C@H](C(=O)N(C)C)CC(=O)N(C)[C@@H](CC(C)C)C(=O)N[C@@H]([C@@H](C)CC)C(=O)N(C)CC(=O)N(C)[C@H]3C/C=C\CCN(C3=O)[C@@H](Cc3ccc(C(F)(F)F)cc3)C(=O)N(C)CC(=O)N[C@@H](CCc3ccc(Cl)c(Cl)c3)C(=O)N2C1 [PP1217],–,–,–,–,0.48,A (a compound having 10 or more and less than 20 is denoted as A),AA (a compound having 20 or more is denoted as AA),17.8,–
CC[C@H](C)[C@@H]1NC(=O)[C@H](CC(C)C)N(C)C(=O)C[C@@H](C(=O)N(C)C)N(C)C(=O)[C@H](C2CCCC2)N(C)C(=O)C2(CCC2)NC(=O)[C@@H]2CCCN2C(=O)[C@H](CCc2cc(F)c(C(F)(F)F)c(F)c2)NC(=O)CN(C)C(=O)[C@H](Cc2ccc(C(F)(F)F)cc2)N2CC/C=C\C[C@@H](C2=O)N(C)C(=O)CN(C)C1=O [PP1272],–,–,–,–,0.11,A (a compound having 10 or more and less than 20 is denoted as A),A (a compound having 10 or more and less than 20 is denoted as A),24,–
CCCC[C@@H]1NC(=O)C[C@@H](C(=O)N(C)C)N(C)C(=O)[C@H](C2CCCC2)N(C)C(=O)C2(CC(C)(C)C2)NC(=O)[C@@H]2C[C@@H](OCC)CN2C(=O)[C@H](CCc2ccc(C(F)(F)F)c(Cl)c2)NC(=O)CN(C)C(=O)[C@H](Cc2ccc(C(F)(F)F)cc2)N2CC/C=C\C[C@@H](C2=O)N(C)C(=O)CN(C)C(=O)[C@H]([C@@H](C)CC)NC1=O [PP3453],0.34,A (a compound having 10 or more and less than 20 is denoted as A),A (a compound having 10 or more and less than 20 is denoted as A),19.4,–,–,–,–,–
CCO[C@@H]1C[C@H]2C(=O)OC3(CCC3)C(=O)N(C)[C@@H](C3CCCC3)C(=O)N(C)[C@H](C(=O)N(C)C)CC(=O)N(C)[C@@H](CC(C)C)C(=O)N[C@@H]([C@@H](C)CC)C(=O)N3CCC[C@H]3C(=O)N(C)[C@H]3C/C=C\CCN(C3=O)[C@@H](Cc3ccc(C)cc3)C(=O)N(C)CC(=O)N[C@@H](CCc3ccc(C(F)(F)F)c(OC)c3)C(=O)N2C1 [PP3380],1.3,B (a compound having 3 or more and less than 10 is denoted as B),A (a compound having 10 or more and less than 20 is denoted as A),28.9,–,–,–,–,–
CCO[C@@H]1C[C@H]2C(=O)NC3(CC(C)(C)C3)C(=O)N(C)[C@@H](C3CCCC3)C(=O)N(C)[C@H](C(=O)N(C)CC)CC(=O)N(C)[C@@H]([C@H](C)OC)C(=O)N[C@@H]([C@@H](C)CC)C(=O)N(C)CC(=O)N(C)[C@H]3C/C=C\CCN(C3=O)[C@@H](Cc3ccc(C)cc3)C(=O)N(C)CC(=O)N[C@@H](CCc3ccc(C(F)(F)F)c(Cl)c3)C(=O)N2C1 [PP3227],0.21,A (a compound having 10 or more and less than 20 is denoted as A),A (a compound having 10 or more and less than 20 is denoted as A),23.2,–,–,–,–,–
CCCCCC[C@H]1C(=O)N[C@@H]([C@@H](C)CC)C(=O)N(C)CC(=O)N(C)[C@H]2C/C=C\CCN(C2=O)[C@@H](Cc2ccc(C(F)(F)F)cc2)C(=O)N(C)CC(=O)N[C@@H](CCc2ccc(Cl)c(Cl)c2)C(=O)N2C[C@H](OCC)C[C@H]2C(=O)NC2(CCC2)C(=O)N(C)[C@@H](C2CCCC2)C(=O)N(C)[C@H](C(=O)N(C)C)CC(=O)N1C [PP1252],–,–,–,–,0.3,A (a compound having 10 or more and less than 20 is denoted as A),AA (a compound having 20 or more is denoted as AA),51.2,–
CCC[C@H]1C(=O)N[C@@H]([C@@H](C)CC)C(=O)N(C2CC2)CC(=O)N(C)[C@H]2C/C=C\CCN(C2=O)[C@@H](Cc2ccc(C)cc2)C(=O)N(C)CC(=O)N[C@@H](CCc2cc(F)c(C(F)(F)F)c(F)c2)C(=O)N2C[C@H](OC(C)C)C[C@H]2C(=O)NC2(CC(C)(C)C2)C(=O)N(C)[C@@H](C2CCCC2)C(=O)N(C)[C@H](C(=O)N(C)C)CC(=O)N1C [PP2570],–,A (a compound having 10 or more and less than 20 is denoted as A),A (a compound having 10 or more and less than 20 is denoted as A),8.9,–,–,–,–,0.39
CCC[C@H]1C(=O)N[C@@H]([C@@H](C)CC)C(=O)N(C)CC(=O)N(C)[C@H]2C/C=C\CCN(C2=O)[C@@H](CC2CCC(F)(F)CC2)C(=O)N(C)CC(=O)N[C@@H](CCc2ccc(C(F)(F)F)c(OC)c2)C(=O)N2C[C@@H](C)C[C@H]2C(=O)NC2(CC(C)(C)C2)C(=O)N(C)[C@@H](C(CC)CC)C(=O)N(C)[C@H](C(=O)N(C)C)CC(=O)N1C [PP2497],–,A (a compound having 10 or more and less than 20 is denoted as A),A (a compound having 10 or more and less than 20 is denoted as A),84.8,–,–,–,–,1.5
